Assay [1] deals with T1, receptor tyrosine kinase AXL (Homo sapiens, UniProt P30530).
T1 construct: 50 μL of AXL kinase domain recombinant protein diluted in reaction buffer was added to start the reaction; made in house; host or cells: insect cells (baculovirus expression system)
T1 sequence (P30530 536-807 limits assumed): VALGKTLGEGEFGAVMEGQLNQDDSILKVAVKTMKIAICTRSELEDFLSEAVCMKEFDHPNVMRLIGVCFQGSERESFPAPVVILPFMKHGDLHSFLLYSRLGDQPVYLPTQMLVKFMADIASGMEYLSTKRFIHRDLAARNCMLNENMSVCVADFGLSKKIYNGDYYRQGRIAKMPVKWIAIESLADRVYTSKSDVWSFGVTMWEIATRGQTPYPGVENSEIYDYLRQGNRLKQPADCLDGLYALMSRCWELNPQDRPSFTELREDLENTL
The experiment in a line: Enzyme activity of receptor tyrosine kinase AXL (ELISA). It is filed as biochemical. The note with it: for inhibition at 0.001 µM: 1 nM; for inhibition at 0.001 µM / inhibition at 0.01 µM / inhibition at 0.1 µM / inhibition at 1 µM: read-out: AXL activity Inhibitory rate(%); for inhibition at 0.01 µM: 10 nM; for inhibition at 0.1 µM: 100 nM; for inhibition at 1 µM: 1000 nM; for AXL activity (in words): at 1000, 100, and 10 nM. The protocol: Detection method: Enzyme-linked immunosorbent assay (ELISA)
Tested receptor tyrosine kinase: AXL
The full-wavelength microplate reader for experiment reading was a product of Molecular Device, model: SpectraMax 190; the experiment water was distilled water produced by Sinopharm Group.
Compound preparation: The compounds were centrifuged at 12,000 g for 5 min, and DMSO was added to prepare a 10^−2M stock solution, vortexed evenly and sonicated for 10 min for use, and stored at −40° C. During the test, the compound was diluted from the stock solution to 100 times the tested concentration with DMSO (the DMSO concentration in the system was 1%).
1. […] Discard the liquid from the well. The plate was washed and washed three times with T-PBS (0.1% Tween-20 in potassium-free PBS, 200 μL/well) for 5 minutes each time.
2. 49 μL of ATP solution diluted with reaction buffer (50 mM HEPES pH 7.4, 50 mM MgCl2, 0.5 mM MnCl2, 0.2 mM Na3VO4, 1 mM DTT) was added to each well, and […] of the tested compound was added to each well, and then 50 μL of AXL kinase domain recombinant protein diluted in reaction buffer was added to start the reaction. Two control wells without ATP were added in each experiment. (100 rpm) Reacted in 37° C. shaker for 1 hour. Discard the liquid from the well, and the plate was washed with T-PBS for three times.
3. […] Discard the liquid from the well, and the plate was washed with T-PBS for three times.
4. The horseradish peroxidase-labeled goat anti-mouse second antibody dilution (antibody diluted 1:2000 with BSA 5 mg/mL in T-PBS), 100 μL/well, and reacted in 37° C. shaker for 0.5 hours. Discard the liquid from the well, and the plate was washed with T-PBS for three times.
6. The reaction was quenched with 50 μL/well 2M […], and read at 490 nm using a tunable microplate reader VERSAmax.
The IC50 values were obtained by four-parameter regression analysis using the software supplied with the microplate reader.

Assay [2] deals with receptor tyrosine kinase c-Met (Homo sapiens, UniProt P08581). The experiment in a line: In vitro c-Met kinase inhibitory activity. It is filed as biochemical. The note with it: two values per compound; for inhibition at 0.1 µM / inhibition at 0.01 µM / inhibition at 0.001 µM: read-out: c-Met Inhibitory rate (%). An excerpt: Experimental Example 3: Study of In Vitro c-Met Kinase Inhibitory Activity
receptor tyrosine kinase c-Met, sequence (P08581 25-1390): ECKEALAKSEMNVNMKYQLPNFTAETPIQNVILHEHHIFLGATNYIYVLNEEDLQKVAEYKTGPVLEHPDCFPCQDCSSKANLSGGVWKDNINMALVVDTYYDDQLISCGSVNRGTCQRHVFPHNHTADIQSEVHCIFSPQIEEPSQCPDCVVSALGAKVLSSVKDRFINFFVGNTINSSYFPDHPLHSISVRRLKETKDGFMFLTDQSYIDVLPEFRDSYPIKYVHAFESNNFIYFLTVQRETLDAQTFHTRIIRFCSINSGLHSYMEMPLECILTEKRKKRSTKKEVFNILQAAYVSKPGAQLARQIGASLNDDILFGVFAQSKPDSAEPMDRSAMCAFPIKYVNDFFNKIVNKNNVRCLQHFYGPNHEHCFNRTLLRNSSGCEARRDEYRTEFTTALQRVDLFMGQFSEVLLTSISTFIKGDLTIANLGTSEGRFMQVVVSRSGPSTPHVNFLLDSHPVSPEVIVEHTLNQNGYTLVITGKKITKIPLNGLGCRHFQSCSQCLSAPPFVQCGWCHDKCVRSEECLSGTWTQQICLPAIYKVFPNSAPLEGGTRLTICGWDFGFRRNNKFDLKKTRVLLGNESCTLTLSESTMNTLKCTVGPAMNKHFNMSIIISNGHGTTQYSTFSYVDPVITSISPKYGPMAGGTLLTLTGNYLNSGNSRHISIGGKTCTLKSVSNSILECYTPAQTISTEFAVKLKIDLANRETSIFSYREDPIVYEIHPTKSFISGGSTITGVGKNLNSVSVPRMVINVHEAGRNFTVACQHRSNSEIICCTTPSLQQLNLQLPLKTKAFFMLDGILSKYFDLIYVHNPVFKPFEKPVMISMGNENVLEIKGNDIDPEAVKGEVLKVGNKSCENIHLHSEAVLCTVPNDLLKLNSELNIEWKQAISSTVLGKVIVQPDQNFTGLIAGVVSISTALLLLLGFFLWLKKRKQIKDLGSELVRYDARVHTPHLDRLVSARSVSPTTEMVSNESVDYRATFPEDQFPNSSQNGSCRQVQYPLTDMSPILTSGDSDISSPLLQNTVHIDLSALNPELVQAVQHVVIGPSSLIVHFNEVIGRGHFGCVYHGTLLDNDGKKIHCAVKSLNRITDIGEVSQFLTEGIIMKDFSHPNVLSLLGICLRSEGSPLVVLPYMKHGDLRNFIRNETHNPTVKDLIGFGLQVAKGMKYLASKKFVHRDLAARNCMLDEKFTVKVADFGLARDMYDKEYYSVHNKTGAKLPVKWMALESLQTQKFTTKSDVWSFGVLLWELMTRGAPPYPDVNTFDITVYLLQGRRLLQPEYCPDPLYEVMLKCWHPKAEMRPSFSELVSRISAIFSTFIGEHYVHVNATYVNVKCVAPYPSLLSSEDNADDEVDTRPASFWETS
Since the screening results of 369 kinase profiles of compound DC621044 has shown that the compound has a certain inhibitory activity on c-Met. We further screened some compounds for their inhibitory activity on c-Met kinase.

The source of these data is patent US12497394B2, “Fused-cyclic pyrazolone formamide compound and preparation method therefor, pharmaceutical composition and use thereof” (SHANGHAI INSTITUTE OF MATERIA MEDICA, CHINESE ACADEMY OF …, priority 2018, dated 2025).

Several values for one entry are separate records, joined by “and”; a condition that tells them apart may be missing. Identical values can stand only once.

For the compound `COCCOc1cc2ncnc(Oc3ccc(NC(=O)c4c5n(n(-c6ccccc6F)c4=O)CCCC5)cc3Cl)c2cc1OCCOC` [DC621090, N-(4-((6,7-bis(2-methoxyethoxy)quinazolin-4-yl)oxy)-3-chlorophenyl)-1-(2-fluorophenyl)-2-oxo-1,2,4,5,6,7-hexahydropyrazolo[1,5-a]pyridine-3-formamide], in assay [1], the inhibition at 0.001 µM amounted to 21.1%, the inhibition at 0.01 µM was found to be 62.9% and the inhibition at 0.1 µM was 92.7%.

On to `COc1cc2ncnc(Oc3ccc(NC(=O)c4c5n(n(-c6cc(F)ccc6F)c4=O)CCCC5)cc3C(F)(F)F)c2cc1OC` [DC621081, 1-(2,5-difluorophenyl)-N-(4-((6,7-dimethoxyquinazoline-4-yl)oxy)-3-trifluoromethylphenyl)-2-oxo-1,2,4,5,6,7-hexahydropyrazolo[1,5-a]pyridine-3-formamide], for which, in assay [1], the inhibition at 0.001 µM came to 16.3%, the inhibition at 0.01 µM was 34.9% and the inhibition at 0.1 µM was found to be 79.2%.

`O=C(Nc1ccc(Oc2ncnc3cc4c(cc23)OCCOCCOCCO4)c(Cl)c1)c1c2n(n(-c3ccccc3)c1=O)CCCC2` [DC621062, N-(3-chloro-4-((7,8,10,11,13,14-hexahydro-[1,4,7,10]tetraoxacyclododecane [2,3-g]quinazolin-4-yl)oxy)phenyl)-2-oxo-1-phenyl-1,2,4,5,6,7-hexahydropyrazolo[1,5-a]pyridine-3-formamide]: in assay [1], the inhibition at 0.001 µM was 6.3%. Moreover, in assay [1], the inhibition at 0.01 µM stood at 43%. Also, the inhibition at 0.1 µM in assay [1] stood at 70.6%; in assay [2] (100 nM), 99.8%. Also, the “c-Met Inhibitory rate (%)” value in assay [2] (1 nM, 0.001 µM) was 35.9% and 68.6%; in assay [2] (10 nM, 0.01 µM), 78.1% and 98.9%; in assay [2] (100 nM, 0.1 µM), 100%.

Regarding `COCCOc1cc2ncnc(Oc3ccc(NC(=O)c4c5n(n(-c6ccc(F)cc6)c4=O)CCCC5)cc3Cl)c2cc1OCCOC` [DC621100, N-(4-((6,7-bis(2-methoxyethoxy)quinazolin-4-yl)oxy)-3-chlorophenyl)-1-(4-fluorophenyl)-2-oxo-1,2,4,5,6,7-hexahydropyrazolo[1,5-a]pyridine-3-formamide], in assay [1], the inhibition at 0.001 µM is 18.9%, the inhibition at 0.01 µM worked out at 59.2% and the inhibition at 0.1 µM is 93%. Besides, in assay [2] (10 nM, 0.01 µM), the “c-Met Inhibitory rate (%)” value is 63.7% and 38.0%. In assay [2] (100 nM, 0.1 µM), the “c-Met Inhibitory rate (%)” value is given as 89.1%. For the same compound, the inhibition at 0.1 µM in assay [2] (100 nM) was 94.4%.

As to `Cc1nccc(Oc2ccc(NC(=O)c3c4n(n(-c5ccccc5)c3=O)CCCC4)cc2)n1` [DC621005, N-(4-((2-methylpyrimidine-4-yl)oxy)phenyl)-2-oxo-1-phenyl-1,2,4,5,6,7-hexahydro[1,5-a]pyridine-3-formamide, reference compound], in assay [1], the inhibition at 0.01 µM was -14.6%, the inhibition at 0.1 µM was found to be 18.3%, the inhibition at 1 µM is -7.8% and the “AXL activity (in words)” value is given as “almost no activity”.

Regarding `O=C(Nc1ccc(Oc2ncnc3cc4c(cc23)OCCOCCOCCO4)c(F)c1)c1c2n(n(-c3ccccc3)c1=O)CCCC2` [DC621061, N-(3-fluoro-4-((7,8,10,11,13,14-hexahydro-[1,4,7,10]tetraoxacyclododecane [2,3-g]quinazolin-4-yl)oxy)phenyl)-2-oxo-1-phenyl-1,2,4,5,6,7-hexahydropyrazolo[1,5-a]pyridine-3-formamide], the inhibition at 0.001 µM in assay [1] came to 22.9%. Also, the inhibition at 0.01 µM turned out to be 66.7% in assay [1] and 51.1% in assay [2] (10 nM). The figures for the inhibition at 0.1 µM in assay [1] and in assay [2] (100 nM) were 91.8% and 94.7%, respectively. Further, the “c-Met Inhibitory rate (%)” value is 35.7% and 61.1% in assay [2] (1 nM, 0.001 µM); 62.4% in assay [2] (10 nM, 0.01 µM); 95.7% in assay [2] (100 nM, 0.1 µM).

Regarding `O=C(Nc1ccc(Oc2ncnc3cc4c(cc23)OCCOCCOCCO4)c(Cl)c1)c1c2n(n(-c3cc(F)ccc3F)c1=O)CCCC2` [DC621064, 1-(2,5-difluorophenyl)-N-(3-chloro-4-((7,8,10,11,13,14-hexahydro-[1,4,7,10]tetraoxacyclododecane [2,3-g]quinazolin-4-yl)oxy)phenyl)-2-oxo-1,2,4,5,6,7-hexahydropyrazolo[1,5-a]pyridine-3-formamide], in assay [1], the inhibition at 0.001 µM is 30.8%, the inhibition at 0.01 µM is 47.4% and the inhibition at 0.1 µM was determined as 83.4%.

Take `COCCOc1cc2ncnc(Oc3ccc(NC(=O)c4c5n(n(-c6ccccc6)c4=O)CCCC5)cc3C(F)(F)F)c2cc1OCCOC` [DC621072, N-(4-((6,7-bis(2-methoxyethoxy)quinazolin-4-yl)oxy)-3-trifluoromethylphenyl)-2-oxo-1-phenyl-1,2,4,5,6,7-hexahydropyrazolo[1,5-a]pyridine-3-formamide]: the figures for the inhibition at 0.001 µM in assay [1] and in assay [2] (1 nM) were 34.8% and 24.1%, respectively. For the same compound, the figures for the inhibition at 0.01 µM in assay [1] and in assay [2] (10 nM) were 52.1% and 67.6%, respectively. Besides, the inhibition at 0.1 µM in assay [1] amounted to 75.9%; in assay [2] (100 nM) it was 95.8%. Besides, the “c-Met Inhibitory rate (%)” value in assay [2] (1 nM, 0.001 µM) was found to be 34.3%; in assay [2] (10 nM, 0.01 µM), 68.4%; in assay [2] (100 nM, 0.1 µM), 96.6%.

`O=C(Nc1ccc(Oc2ncnc3cc4c(cc23)OCCOCCOCCO4)c(Cl)c1)c1c2n(n(-c3ccc(F)cc3)c1=O)CCCC2` [DC621068, N-(3-chloro-4-((7,8,10,11,13,14-hexahydro-[1,4,7,10]tetraoxacyclododecane[2,3-g]quinazolin-4-yl)oxy)phenyl)-1-(4-fluorophenyl)-2-oxo-1,2,4,5,6,7-hexahydropyrazolo[1,5-a]pyridine-3-formamide]: the inhibition at 0.001 µM in assay [1] came to 16.5%; in assay [2] (1 nM), 34%. Also, the inhibition at 0.01 µM came out at 55.1% in assay [1] and 71.2% in assay [2] (10 nM). For the same compound, the inhibition at 0.1 µM amounted to 85.8% in assay [1] and 100% in assay [2] (100 nM). The “c-Met Inhibitory rate (%)” value in assay [2] (1 nM, 0.001 µM) amounted to 46.0%; in assay [2] (10 nM, 0.01 µM) it was 85.9%.

`O=C(Nc1ccc(Oc2ncnc3cc4c(cc23)OCCOCCOCCO4)c(F)c1)c1c2n(n(-c3ccccc3F)c1=O)CCCC2` [DC621065, N-(3-fluoro-4-((7,8,10,11,13,14-hexahydro-[1,4,7,10]tetraoxacyclododecane [2,3-g]quinazolin-4-yl)oxy)phenyl)-1-(2-fluorophenyl)-2-oxo-1,2,4,5,6,7-hexahydropyrazolo[1,5-a]pyridine-3-formamide]: in assay [1], the inhibition at 0.001 µM stood at 29.6%, the inhibition at 0.01 µM was 45.8% and the inhibition at 0.1 µM was 95%.

As for `COc1nc(OC)nc(Oc2ccc(NC(=O)c3c4n(n(-c5ccccc5)c3=O)CCCC4)cc2)n1` [DC621003, N-(4-((4,6-dimethoxy-1,3,5-triazine-2-yl)oxy)phenyl)-2-oxo-1-phenyl-1,2,4,5,6,7-hexahydro[1,5-a]pyridine-3-formamide, reference compound], in assay [1], the inhibition at 0.01 µM is -15.5%, the inhibition at 0.1 µM amounted to 2.8%, the inhibition at 1 µM is -7.2% and the “AXL activity (in words)” value was “almost no activity”.

Turning to `COCCOc1cc2ncnc(Oc3ccc(NC(=O)c4c5n(n(-c6ccccc6)c4=O)CCCC5)cc3Cl)c2cc1OCCOC` [DC621070, N-(4-((6,7-bis(2-methoxyethoxy)quinazolin-4-yl)oxy)-3-chlorophenyl)-2-oxo-1-phenyl-1,2,4,5,6,7-hexahydropyrazolo[1,5-a]pyridine-3-formamide], in assay [1], the inhibition at 0.001 µM amounted to 2.4%, the inhibition at 0.01 µM turned out to be 60.5% and the inhibition at 0.1 µM was found to be 91.1%.
